Consider 5 sequences from patent US20230398205A1, “SARS-COV-2 IMMU[…] CONSTRUCTS AND USES THEREOF” (TScan Therapeutics, Inc., priority 2020, published 2023).

Where two headings read alike, the source gives them in different places. Where no end group is shown, it is not given here.

Assay type in all cases: cell-based, human
Test [1] deals with memory CD8 T cells from convalescent COVID-19 patients.
Test [2] deals with memory CD8+ T cells specific for A*02:01 epitopes. The following applies: Allele A02.
In test [3] the test system is naïve CD8 T cells isolated from healthy donors. The following applies: 10 days of expansion; tetramer staining; FIG. 14, FIG. 15.

Regarding DTDFVNEFY [DTD], the “% of Pts (Screen M+ 2SD)” value in test [1] (Allele A01) is 40%.

On to LLLDRLNQL [LLL], for which the “% of Pts (Tetramer)” value in test [2] was determined as 22.2%. The “% of Pts (Screen M+ 2SD)” value in test [1] (Allele A02) turned out to be 33.3%.

LLYDANYFL [LLY]: the “% of Pts (Tetramer)” value in test [2] is recorded as 55.6%.

Regarding NTCDGTTFTY [NTC], the “% of Pts (Screen M+ 2SD)” value in test [1] (Allele A01) came to 60%.

As for YLQPRTFLL [YLQ], in test [3], the “expansion of peptide-specific T cells from the naïve T cell population” value is recorded as “induces an expansion of peptide-specific T cells”.
